Reference: patent publication US9493416B2, “N-methyl-4-benzylcarbamidopyridinium chloride and a process for its preparation” (Farmak International Holding GmbH, priority 2012, dated 2016)

Assay: Active ingredient release (dissolution) profile from solid gelatine capsules in pharmacopeial buffer solutions
Assay type: physicochemical
Conditions: for released faster than FAV00A-Io by: 370.6 mg capsules vs FAV00A-Io 500 mg capsules
Description: Results of comparative studies of active ingredient release profiles from a drug formulated as solid gelatine capsules using two salts of N-methyl-4-benzylcarbamidopyridine, namely the chloride and iodide salts labelled “FAV00A-Cl” and “FAV00A-Io” hereinafter.
In order to assess the FAV00A-Cl substance release rate from a finished medicinal product, studies of active ingredient release profiles were carried out for FAV00A-Cl 370.6 mg capsules, in 3 reference pharmacopeial buffer solutions with pH 1.2, 4.5, 6.8 and typical measurement conditions (1000 ml of 0.1M HCl; 100 rpm (basket); 1000 ml of acetate buffer solution pH 4.5; 100 rpm (basket); 1000 ml of phosphate buffer solution pH 6.8; 100 rpm (basket), respectively). Study results were compared against FAV00A-Io 500 mg capsules (with consideration of molecular weights of FAV00A-Cl and FAV00A-Io substances: the dosage of FAV00A-Cl substance 370.6 mg is equivalent to the dosage of FAV00A-Io substance 500 mg). The iodide salt FAV00A-Io used in the study was the α-crystalline form of amizon as described in applicant's co-pending patent applications WO 2011/158058 and WO 2011/157743.

C[n+]1ccc(C(=O)NCc2ccccc2)cc1.[Cl-] [FAV00A-Cl, N-methyl-4-benzylcarbamidopyridinium chloride]
released faster than FAV00A-Io by (0.1M HCl, 5-th minute): 40%
released faster than FAV00A-Io by (0.1M HCl, 10-th minute): 20%
Dissolution classification of the product (based on release in 15 min of more than 85%): rapidly dissolving
released faster than FAV00A-Io by (buffer solution with pH 4.5, 5-th minute): 25%
released faster than FAV00A-Io by (buffer solution with pH 4.5, 10-th minute): 10%
released faster than FAV00A-Io by (buffer solution with pH 6.8, 5-th minute): 25%
released faster than FAV00A-Io by (buffer solution with pH 6.8, 10-th minute): 15%
Release of substance from finished medicinal product in 15 min (in 15 min, 3 reference pharmacopoeial buffer solutions (pH 1.2, 4.5, 6.8)): more than 85%
